“Also recorded” adds a separate entry of the source.
How the values were obtained:
serum pyridinoline (PYD) = assay: Serum PYD ELISA in mice bearing 435/HAL-luc bone metastases (osteolysis); type: in vivo
Text: Athymic mice were inoculated with 3×10^6 435/HAL-luc cells into the left ventricle of the heart on day 0. Twenty days later, mice were imaged using the IVIS™ imaging system and placed into two matched groups of 16 mice based on photon emission, a measure of bioluminescence of the cancer. […] Mice were imaged approximately once a week. […] The femur, mandible and spines were collected from mice treated with either compound 1 or its vehicle, and fixed in Streck's Tissue Fixative prior to bone density scanning and histological analysis. Serum was also collected for measurement of collagen breakdown product pyridinoline (PYD) in the circulation.
Serum PYD ELISA: The parental breast carcinoma line MDA-MB-435, is very well characterized as having osteolytic activity (32). […] Serum samples were collected, aliquoted and frozen at −80° C. until analysis. Serum PYD was measured using a competitive enzyme immunoassay kit following the manufacturer's protocol (Serum PYD, Quidel 8019, San Diego, Calif.). Samples were measured in duplicate.

[1] = system: 435/HAL-luc breast cancer bone metastases; assay: 435/HAL-luc experimental bone metastasis model, bioluminescence imaging of tumor growth; type: in vivo, mice
Method: The MDA-MB-435-HAL-luc breast cancer xenograft model was used to confirm significant inhibition of the growth of breast cancer bone metastases. The presence of live tumor cells was monitored by bioluminescence imaging with the Xenogen IVIS™ system.
The human breast carcinoma cell line 435/HAL was obtained (Pharmacia Corp., St. Louis, Mo.). […] Stable transfection of 435/HAL cells with luciferase (light emitting enzyme of firefly Photinus pyralis) was then performed. The cells were cotransfected with pGL3-control (Promega, Madison, Wis.) and pTK-Hygro (Clontech, Palo Alto, Calif.) at a 1:4 ratio using Lipofectamine 2000 (Invitrogen, Carlsbad, Calif.). Cells were maintained in Hygromycin (200 μg/ml) (Invitrogen) and resistant colonies isolated by ring cloning. Hygro-resistant colonies were screened for luciferase expression using Promega brite-glo reagent, normalized as RLU/μg protein. A subclone with the highest luciferase activity was selected, which we refer to as ‘435/HAL-luc.’ […]
Mice were injected intraperitoneally with 150 mg/kg of luciferin (Xenogen Corp., Alameda, Calif.), followed by anesthetization with Ketamine/Xylazine five minutes later. […] Briefly, mice were placed on the temperature-controlled bed of the imaging chamber and a gray-scale whole body image of the ventral side of the mice was captured, followed by an overlay of a bioluminescence map representing the spatial distribution of photons detected from cleaved luciferin in the cancer cells expressing luciferase. […] The bioluminescent signal was quantified by counting the pixels within the area drawn around each site of photon emission, using a customized version of the IGOR Pro version 4.0 Software (WaveMetrics, Inc., Lake Oswego, Oreg.) called Living Image version 2.11 (Xenogen Corporation, Alameda, Calif.). The sum of all detected photon counts within a region of interest containing the entire cancer lesion was determined. For evaluation of tumor growth inhibition, the Student's t test was used to assess differences in photon emission readings between treated and control groups (p<0.05 was considered significant). […]

osteoclast development = assay: Murine osteoclast development in vitro (bone marrow cells + M-CSF and RANKL, TRAP quantitation); type: cell-based, mice
Method: Bone marrow cells were isolated from female Balb/c mice and cultured either in medium alone or with addition of 10 ng/ml murine M-CSF and 100 ng/ml murine RANK ligand (RANKL) from day 0 to induce osteoclast development. […] Osteoclast development on day 7 was assessed by colorimetric quantitation of tartrate resistant acid phosphatase activity (TRAP) as well as counting TRAP positive cells with >3 nuclei.
TRAP staining and quantitation were performed at day 6.

human CSF1R = molecular target: T1, human CSF1R (Homo sapiens, UniProt P07333); assay: CSF1R phosphorylation in 3T3-huCSF1R cells (p-CSF1R Western blot after M-CSF stimulation); type: cell-based; settings: M-CSF stimulated, FIG. 1
T1 construct: expressed in transfected cells; host or cells: NIH3T3 (3T3-huCSF1R)
T1 sequence (P07333 20-972): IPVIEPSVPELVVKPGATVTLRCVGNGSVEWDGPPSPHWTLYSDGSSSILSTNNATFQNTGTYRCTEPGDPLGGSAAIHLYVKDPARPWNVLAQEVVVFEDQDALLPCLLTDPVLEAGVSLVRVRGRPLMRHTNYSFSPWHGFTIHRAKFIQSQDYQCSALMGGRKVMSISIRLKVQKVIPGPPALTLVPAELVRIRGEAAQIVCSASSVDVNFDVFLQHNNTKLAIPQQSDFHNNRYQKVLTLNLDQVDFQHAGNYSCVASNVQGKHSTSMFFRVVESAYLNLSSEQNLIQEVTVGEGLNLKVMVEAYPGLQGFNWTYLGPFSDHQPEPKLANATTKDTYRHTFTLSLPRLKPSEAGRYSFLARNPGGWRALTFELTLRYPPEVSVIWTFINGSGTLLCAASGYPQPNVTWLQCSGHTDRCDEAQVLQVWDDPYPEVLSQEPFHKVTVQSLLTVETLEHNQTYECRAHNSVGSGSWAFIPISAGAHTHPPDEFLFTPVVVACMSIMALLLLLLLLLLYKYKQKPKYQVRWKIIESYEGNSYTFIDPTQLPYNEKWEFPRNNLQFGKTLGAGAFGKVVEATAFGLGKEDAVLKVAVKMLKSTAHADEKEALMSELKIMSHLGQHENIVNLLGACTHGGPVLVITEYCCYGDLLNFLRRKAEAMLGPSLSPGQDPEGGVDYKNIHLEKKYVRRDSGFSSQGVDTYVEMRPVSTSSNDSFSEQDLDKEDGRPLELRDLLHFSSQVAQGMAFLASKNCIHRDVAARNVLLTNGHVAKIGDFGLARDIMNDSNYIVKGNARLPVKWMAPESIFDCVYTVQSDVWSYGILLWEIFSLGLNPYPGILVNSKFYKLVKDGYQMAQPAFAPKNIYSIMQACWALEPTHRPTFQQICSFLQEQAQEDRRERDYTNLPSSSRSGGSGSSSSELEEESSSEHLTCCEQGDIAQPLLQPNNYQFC
Method: Cells were lysed immediately after stimulation and lysates spun at 4° C. for 20 mins. Supernatant was transferred to new microfuge tubes. For each sample, 500 μg of total protein was immunoprecipitated overnight with a rabbit polyclonal antibody to bead-conjugated human CSF1R (Santa Cruz Biotechnology, CA). A p-CSF1R Western blot was then performed, using anti-phospho-CSF1R (Tyr723) antibody (Cell Signaling Technology, Beverly, Mass.) at 1:1000 dilution.

Question: For `CCN(CC)CCNC(=O)c1c(C)[nH]c(C=C2C(=O)Nc3ccc(F)cc32)c1C` [compound 1, 5-(5-Fluoro-2-oxo-1,2-dihydro-indol-3-ylidenemethyl)-2,4-dimethyl-1H-pyrrole-3-carboxylic acid (2-diethylamino-ethyl)-amide], which “serum PYD mean value” (serum pyridinoline (PYD); 80 mg per kg) is on record?
Answer: 1.3 ± 0.16 ng/mL

Question: What about the “reduction of serum PYD levels compared to vehicle treated mice” value (serum pyridinoline (PYD); 14 compound 1 treated vs 12 vehicle treated mice, p=0.047) of the same compound?
Answer: 30%

Question: What about the “osteolysis as measured by pyridinoline levels” value (serum pyridinoline (PYD); mice with breast cancer metastases to bone, FIG. 4) of the same compound?
Answer: less osteolysis

Question: And the “live tumor / growth of breast cancer metastases by bioluminescence imaging” value ([1]; MDA-MB-435-HAL-luc xenograft model)?
Answer: significant reduction in live tumor; also recorded: inhibits the growth of breast cancer metastases

Question: And the “photon count emission from the mouse bones” value ([1]; at both doses (80 or 40 mg per kg once daily by gavage), FIG. 3)?
Answer: greatly decreased

Question: And the “inhibition of tumor growth in bone (photon emission, long bones and mandibles)” value ([1]; day 41, 80 or 40 mg per kg once daily by gavage, p=0.001)?
Answer: 89%

Question: And the “effect of time of addition of compound (D0, D2 or D4) on osteoclast development” value (osteoclast development; 100 nM and 10 nM, TRAP at day 6, FIG. 2b)?
Answer: the later precursor cells are exposed to compound 1, the less inhibitory effect the compound exhibits; also recorded: inhibits an early stage of osteoclast development, but not later stages

Question: What about the “concentrations at which development of osteoclasts is inhibited” value (osteoclast development; Balb/c bone marrow cells, M-CSF 10 ng/ml + RANKL 100 ng/ml, day 7, TRAP, FIG. 2a) of the same compound?
Answer: 10 to 100 nM

Question: And the “inhibition of osteoclast development” value (osteoclast development; in vitro, FIG. 2a)?
Answer: inhibits osteoclast development in a dose-dependent manner

Question: And the “inhibition of CSF1R phosphorylation” value (human CSF1R)?
Answer: inhibits CSF1R phosphorylation in a dose-dependent manner; also recorded: inhibits phosphorylation of M-CSF receptors
